Test results published in patent publication US7138543B2, “Thiolalkyl benzoic acid derivatives” (Guilford Pharmaceuticals Inc., priority 2001, dated 2006).

How the values were obtained:
[1] = tested on: rats subjected to middle cerebral artery occlusion; test: Neuroprotective effect with TGF-β neutralizing antibodies in MCAO rats; format: in vivo; conditions: FIG. 5
Excerpt: The effect of TGF-β neutralizing antibodies on the neuroprotective effect of Compound C was also studied in rats following MCAO.
One of ordinary skill in the art can appreciate that the regulation of TGF-β's by NAALADase inhibitors may have implications not only in stroke, but also in other diseases, disorders and conditions including, without limitation, neurological diseases, psychiatric diseases, demyelinating diseases, prostate cancer, inflammation, diabetes and angiogenesis.

TGF-β2 = test: Effect on TGF-β2 in in vitro ischemia model; format: cell-based; conditions: ischemic cell cultures, FIG. 2
Description: (§1) Effect of NAALADase Inhibition on TGF-β in In vitro Ischemia Model Compound C was added to ischemia cell cultures to determine its effect on TGF-β levels during stroke.

ischemic cell cultures = test: Neuroprotective effect with growth factor neutralizing antibodies in in vitro ischemia model; format: cell-based
Description: TGF-β neutralizing antibodies were then added to the ischemic cell cultures.

TGF-β1 [2] = test: Effect on TGF-β1 in in vitro ischemia model; format: cell-based; conditions: ischemic cell cultures, FIG. 1
Description: as §1

[3] = tested on: chronic constrictive injury-induced rats; test: Neuropathic pain in CCI model (sciatic nerve ligation); format: in vivo
Description: In vivo Assay of NAALADase Inhibitors on Neuropathic Pain in CCI Model
Sciatic nerve ligation, consisting of 4 ligatures tied loosely around the sciatic nerve at 1 mm intervals proximal to the nerve trifurcation, was performed on rats. […] The rats were habituated to a Hargreaves apparatus. An infrared heat source was directed onto the dorsal surface of each rat's hindpaws and the time taken for the rat to withdraw its paws was noted. The difference in scores between the latency of the response for the paw on the operated side versus the paw on the unoperated control side was determined.

TGF-β1 [4] = test: TGF-β1 levels by microdialysis in MCAO rats; format: in vivo; conditions: during occlusion and reperfusion, FIG. 6

Compound: O=C(O)CCC(CP(=O)(O)O)C(=O)O (centres unmarked) [Compound C, 2-(phosphonomethyl)pentanedioic acid]
- neuroprotective effect in presence of TGF-β neutralizing antibodies [1]: significantly attenuated the neuroprotective effect
- TGF-β2 concentration (TGF-β2): increased concentration
- neuroprotective effect in presence of TGF-β neutralizing antibodies (ischemic cell cultures; FIG. 3): blocked the neuroprotective effect
- neuroprotective effect in presence of FGF antibody (ischemic cell cultures; FIG. 4): did not block the neuroprotective effect
- TGF-β1 concentration (TGF-β1 [2]): increased concentration
- withdrawal latency difference scores between operated and unoperated paws ([3]; 50 mg/kg i.p. daily starting 10 days post surgery, FIG. 8): dramatically normalized the difference scores
- start of significant effect on difference scores ([3]; 50 mg/kg i.p. daily, persisted to end of study (21 days of daily dosing)): 11 days of drug treatment
- TGF-β1 levels (TGF-β1 [4]): significant rise in TGF-β1 levels
